Results published in US9302999B2, “Substituted triazoles as herbicides” (E. I. DU PONT DE NEMOURS AND COMPANY, priority 2012, dated 2016).

What was measured:
Type in all cases: in vivo
[1] = test system: sedge, umbrella (small-flower umbrella sedge Cyperus difformis); test: Test B flooded paddy: sedge, umbrella; conditions: Flood; 250 g ai/ha; applied to paddy water at 2-leaf stage; visually evaluated after 13 to 15 days
Procedure, shortened: (§1)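 Greenhouse assay lasting 13 to 15 days. Treatment was into water flooding pots 3 cm deep, at the 2-leaf stage, with that level sustained afterwards. Scores compare treated with control plants visually, 100 denoting complete control and 0 no effect; a dash marks no test result.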

[2] = test system: lambsquarters (Chenopodium album); test: Test C pre-/postemergence: lambsquarters
Procedure, shortened: (§2)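 Visual injury scored 0–100 (100 = complete control) against untreated controls after 13–15 greenhouse days. Surfactant-containing solvent formulations applied either to soil after sowing (loam/sand) or over 1- to 4-leaf plants, 2–18 cm tall.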

[3] = test system: winter wheat (Triticum aestivum); test: Test C pre-/postemergence: winter wheat
Procedure, shortened: as §2

[4] = test system: ryegrass, Italian (Italian ryegrass, Lolium multiflorum); test: Test C pre-/postemergence: ryegrass, Italian
Procedure, shortened: as §2

[5] = test system: rice (Oryza sativa); test: Test B flooded paddy: rice; conditions: Flood; 250 g ai/ha; applied to paddy water at 2-leaf stage; visually evaluated after 13 to 15 days
Procedure, shortened: as §1

[6] = test system: pigweed (Amaranthus retroflexus); test: Test A pre-/postemergence: pigweed; conditions: for Pigweed plant response rating: visual rating on 0 to 100 scale (0 no effect, 100 complete control), approximately ten days
Procedure, shortened: (§3)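 Each species received preemergence soil-directed spraying and, at the same time, postemergence treatment of seedlings 2–10 cm tall. Formulation: non-phytotoxic solvent mixture including surfactant. Response assessed visually about ten days on, relative to untreated controls, 0–100 scale.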

[7] = test system: barnyardgrass (Echinochloa crus-galli); test: Test B flooded paddy: barnyardgrass; conditions: Flood; 250 g ai/ha; applied to paddy water at 2-leaf stage; visually evaluated after 13 to 15 days
Procedure, shortened: as §1

[8] = test system: pigweed (Amaranthus retroflexus); test: Test C pre-/postemergence: pigweed
Procedure, shortened: as §2

[9] = test system: wheat (Triticum aestivum); test: Test A pre-/postemergence: wheat; conditions: for Wheat plant response rating: visual rating on 0 to 100 scale (0 no effect, 100 complete control), approximately ten days
Procedure, shortened: as §3

[10] = test system: soybean (Glycine max); test: Test C pre-/postemergence: soybean
Procedure, shortened: as §2

[11] = test system: barnyardgrass (Echinochloa crus-galli); test: Test A pre-/postemergence: barnyardgrass
Procedure, shortened: as §3

[12] = Postemergence, 31 g ai/ha, scale 0 to 100 (0 no effect, 100 complete control)
[13] = Postemergence, 62 g ai/ha, scale 0 to 100 (0 no effect, 100 complete control)
[14] = Postemergence, 125 g ai/ha, scale 0 to 100, 0 no effect, 100 complete control
[15] = Postemergence, 250 g ai/ha, scale 0 to 100
[16] = Preemergence, 31 g ai/ha, scale of 0 to 100, 0 is no effect, 100 is complete control
[17] = Preemergence, 62 g ai/ha, scale of 0 to 100, 0 is no effect, 100 is complete control
[18] = Preemergence, 125 g ai/ha, scale 0 to 100, 0 no effect, 100 complete control
[19] = Preemergence, 250 g ai/ha, scale 0 to 100, 0 no effect, 100 complete control
[20] = Postemergence, 125 g ai/ha, 0 to 100 scale, 0 is no effect, 100 is complete control
[21] = Preemergence, 125 g ai/ha, 0 to 100 scale where 0 is no effect and 100 is complete control
[22] = Preemergence, 500 g ai/ha, 0 to 100 scale (0 no effect, 100 complete control)
[23] = Postemergence, 500 g ai/ha, visual rating on 0 to 100 scale (0 no effect, 100 complete control), approximately ten days

Structure (SMILES): COc1nn(-c2ccc(C(F)(F)F)cc2)nc1Cc1ccnc(C(F)F)c1 [Compound 138]
- Plant response rating, Sedge, Umbrella (0 to 100 scale, 0 is no effect, 100 is complete control) [1]: 90
- Plant response rating, Lambsquarters [2, 12]: 100
- Plant response rating, Lambsquarters [2, 13]: 100
- Plant response rating, Lambsquarters [2, 14]: 100
- Plant response rating, Lambsquarters [2, 15]: 100
- Plant response rating, Lambsquarters [2, 16]: 95
- Plant response rating, Lambsquarters [2, 17]: 98
- Plant response rating, Lambsquarters [2, 18]: 98
- Plant response rating, Lambsquarters [2, 19]: 98
- Plant response rating, Wheat [3, 12]: 10
- Plant response rating, Wheat [3, 13]: 10
- Plant response rating, Wheat [3, 14]: 35
- Plant response rating, Wheat [3, 15]: 35
- Plant response rating, Wheat [3, 17]: 5
- Plant response rating, Wheat [3, 18]: 10
- Plant response rating, Wheat [3, 19]: 50
- Plant response rating, Ryegrass, Italian [4, 12]: 40
- Plant response rating, Ryegrass, Italian [4, 13]: 55
- Plant response rating, Ryegrass, Italian [4, 14]: 60
- Plant response rating, Ryegrass, Italian [4, 15]: 75
- Plant response rating, Ryegrass, Italian [4, 16]: 10
- Plant response rating, Ryegrass, Italian [4, 17]: 40
- Plant response rating, Ryegrass, Italian [4, 18]: 70
- Plant response rating, Ryegrass, Italian [4, 19]: 90
- Plant response rating, Rice (0 to 100 scale, 0 is no effect, 100 is complete control) [5]: 50
- Plant response rating, Pigweed [6, 20]: 100
- Pigweed plant response rating ([6]; Postemergence, 500 g ai/ha): 100
- Plant response rating, Pigweed [6, 21]: 100
- Plant response rating, Pigweed [6, 22]: 100
- Plant response rating, Barnyardgrass (0 to 100 scale, 0 is no effect, 100 is complete control) [7]: 80
- Plant response rating, Pigweed [8, 12]: 98
- Plant response rating, Pigweed [8, 13]: 98
- Plant response rating, Pigweed [8, 14]: 98
- Plant response rating, Pigweed [8, 15]: 100
- Plant response rating, Pigweed [8, 16]: 98
- Plant response rating, Pigweed [8, 17]: 100
- Plant response rating, Pigweed [8, 18]: 100
- Plant response rating, Pigweed [8, 19]: 100
- Plant response rating, Wheat [9, 20]: 50
- Wheat plant response rating ([9]; Postemergence, 500 g ai/ha): 60
- Plant response rating, Wheat [9, 21]: 30
- Plant response rating, Wheat [9, 22]: 60
- Plant response rating, Soybean [10, 12]: 55
- Plant response rating, Soybean [10, 13]: 70
- Plant response rating, Soybean [10, 14]: 80
- Plant response rating, Soybean [10, 15]: 80
- Plant response rating, Soybean [10, 16]: 5
- Plant response rating, Soybean [10, 17]: 20
- Plant response rating, Soybean [10, 19]: 30
- Barnyardgrass plant response rating [11, 20]: 90
- Barnyardgrass plant response rating [11, 23]: 90
- Plant response rating, Barnyardgrass [11, 21]: 90
- Plant response rating, Barnyardgrass [11, 22]: 100

Structure (SMILES): Cc1nn(-c2ccc(F)c(C(F)(F)F)c2)nc1Cc1ccnc(C(F)(F)F)c1 [Compound 156]
- Plant response rating, Sedge, Umbrella (0 to 100 scale, 0 is no effect, 100 is complete control) [1]: 85
- Plant response rating, Lambsquarters [2, 12]: 98
- Plant response rating, Lambsquarters [2, 13]: 98
- Plant response rating, Lambsquarters [2, 14]: 98
- Plant response rating, Lambsquarters [2, 15]: 98
- Plant response rating, Lambsquarters [2, 16]: 100
- Plant response rating, Lambsquarters [2, 17]: 100
- Plant response rating, Lambsquarters [2, 18]: 100
- Plant response rating, Lambsquarters [2, 19]: 100
- Plant response rating, Wheat [3, 12]: 5
- Plant response rating, Wheat [3, 13]: 15
- Plant response rating, Wheat [3, 14]: 25
- Plant response rating, Wheat [3, 15]: 30
- Plant response rating, Wheat [3, 17]: 5
- Plant response rating, Wheat [3, 18]: 20
- Plant response rating, Wheat [3, 19]: 35
- Plant response rating, Ryegrass, Italian [4, 12]: 15
- Plant response rating, Ryegrass, Italian [4, 13]: 35
- Plant response rating, Ryegrass, Italian [4, 14]: 35
- Plant response rating, Ryegrass, Italian [4, 15]: 70
- Plant response rating, Ryegrass, Italian [4, 16]: 45
- Plant response rating, Ryegrass, Italian [4, 17]: 80
- Plant response rating, Ryegrass, Italian [4, 18]: 90
- Plant response rating, Ryegrass, Italian [4, 19]: 90
- Plant response rating, Rice (0 to 100 scale, 0 is no effect, 100 is complete control) [5]: 50
- Plant response rating, Pigweed [6, 20]: 100
- Pigweed plant response rating ([6]; Postemergence, 500 g ai/ha): 100
- Plant response rating, Pigweed [6, 21]: 100
- Plant response rating, Pigweed [6, 22]: 100
- Plant response rating, Barnyardgrass (0 to 100 scale, 0 is no effect, 100 is complete control) [7]: 75
- Plant response rating, Pigweed [8, 12]: 75
- Plant response rating, Pigweed [8, 13]: 90
- Plant response rating, Pigweed [8, 14]: 95
- Plant response rating, Pigweed [8, 15]: 100
- Plant response rating, Pigweed [8, 16]: 100
- Plant response rating, Pigweed [8, 17]: 100
- Plant response rating, Pigweed [8, 18]: 100
- Plant response rating, Pigweed [8, 19]: 100
- Plant response rating, Wheat [9, 20]: 40
- Wheat plant response rating ([9]; Postemergence, 500 g ai/ha): 60
- Plant response rating, Wheat [9, 21]: 20
- Plant response rating, Wheat [9, 22]: 80
- Plant response rating, Soybean [10, 12]: 55
- Plant response rating, Soybean [10, 13]: 80
- Plant response rating, Soybean [10, 14]: 95
- Plant response rating, Soybean [10, 15]: 95
- Plant response rating, Soybean [10, 16]: 5
- Plant response rating, Soybean [10, 17]: 10
- Plant response rating, Soybean [10, 18]: 25
- Plant response rating, Soybean [10, 19]: 25
- Plant response rating, Barnyardgrass [11, 20]: 90
- Barnyardgrass plant response rating [11, 23]: 90
- Plant response rating, Barnyardgrass [11, 21]: 100
- Plant response rating, Barnyardgrass [11, 22]: 100
